Here are results for 10 compounds from ChEMBL document CHEMBL1201862, “PubChem BioAssay data set” (2004).

Each structure is given as a SMILES string.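 Exposure lasted 48 hours, with cells grown in 96-well plates and compounds tested at five concentrations. GI50: concentration for 50% inhibition of growth.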 Activity calls are given as the source filed them. No stated cut-off is given here; in the data, active = GI50 up to about 1.1 µM and inactive = higher. Where a SMILES comes first, the peptide text is derived from it. The star is where a group is joined. Boc = CC(C)(C)OC(=O)* Where only a bound is given, the exact number is not on record here.

Among the test systems are OVCAR-4; UACC-257; TK-10; NCI-H460; SK-OV-3; Malme-3M; HL-60; HOP-92; UO-31; ACHN; OVCAR-5; NCI-H23; COLO 205; SK-MEL-2; HCT-116; T47D; NCI-H522; CAKI-1; SF-268.
What all share (assay): NCI-60 cell line screen, 48 h

Turning to `O=C1C=CC(O)C2C1CC13SSC4(CC5C(=O)C=CC(O)C5N4C1=O)C(=O)N23` (stereo not given), the GI50 was 0.476 µM (active) with OVCAR-4; 0.183 µM (active) in the assay with UACC-257; 0.485 µM (active) in the assay on TK-10; 0.681 µM (active) in the assay with NCI-H460; 2.2 µM (inactive) in the assay on SK-OV-3; 0.33 µM (active) with Malme-3M. Moreover, the GI50 with HL-60 is < 0.0465 µM (active); with HOP-92 it was 0.0966 µM (active); with UO-31 it was 0.272 µM (active); in the assay with ACHN, 0.0745 µM (active); in the assay on OVCAR-5, 0.0634 µM (active); in the assay with NCI-H23, 0.106 µM (active). For the same compound, the GI50 in the assay with COLO 205 is 0.155 µM (active); in the assay with SK-MEL-2, 0.796 µM (active); with HCT-116 it was < 0.0151 µM (active); in the assay with T47D it was 0.499 µM (active); in the assay with NCI-H522, 0.0453 µM (active); in the assay on CAKI-1, 0.155 µM (active). Also, the GI50 in the assay with SF-268 was 0.847 µM (active).

Consider `O=C(O)CSc1ncccc1[N+](=O)[O-]`, for which the GI50 with OVCAR-4, in the assay with UACC-257, with TK-10, in the assay on NCI-H460, in the assay with SK-OV-3 and in the assay on Malme-3M was > 100 µM (inactive) throughout. For the same compound, the GI50 in the assay on HL-60, in the assay with HOP-92, in the assay on UO-31, with ACHN, with OVCAR-5 and in the assay with NCI-H23 was > 100 µM (inactive) throughout. Besides, the GI50 with COLO 205, in the assay on SK-MEL-2, with HCT-116, in the assay on T47D, in the assay with NCI-H522 and with CAKI-1 was > 100 µM (inactive) each time. Further, the GI50 in the assay on SF-268 is > 100 µM (inactive).

As to `O=C(O)CC(CC(=O)O)C(=O)O` [TRICARBALLYLIC ACID], the GI50 in the assay on OVCAR-4, with UACC-257, in the assay with TK-10, with NCI-H460, in the assay on SK-OV-3 and in the assay with Malme-3M was > 100 µM (inactive) each time. For the same compound, the GI50 in the assay with HL-60, in the assay with HOP-92, in the assay with UO-31, with ACHN, with OVCAR-5 and in the assay with NCI-H23 was > 100 µM (inactive) each time. The GI50 in the assay with COLO 205, in the assay on SK-MEL-2, in the assay on HCT-116, in the assay on T47D, in the assay on NCI-H522 and with CAKI-1 was > 100 µM (inactive) each time. Moreover, in the assay on SF-268, the GI50 is > 100 µM (inactive).

Regarding `Cc1cc(O)c(O)c(Oc2cc(C)cc(O)c2O)c1`, the GI50 with OVCAR-4 was 13.4 µM (inactive); with UACC-257 it was 6.07 µM (inactive); in the assay with TK-10 it was 17.1 µM (inactive); with NCI-H460, 11.1 µM (inactive); with SK-OV-3, 36.8 µM (inactive); in the assay with Malme-3M it was > 10 µM (inactive). Besides, the GI50 in the assay with HL-60 is 1.99 µM (inactive); in the assay on HOP-92, 16.6 µM (inactive); in the assay with UO-31 it was 18.5 µM (inactive); in the assay with ACHN, 11.6 µM (inactive); in the assay on OVCAR-5, 34.2 µM (inactive); in the assay with NCI-H23, 25.6 µM (inactive). Moreover, the GI50 with COLO 205 is 20.1 µM (inactive); in the assay with SK-MEL-2, 21.5 µM (inactive); in the assay on HCT-116, 14.5 µM (inactive); in the assay on T47D, 26.7 µM (inactive); with NCI-H522 it was 15 µM (inactive); with CAKI-1, 32 µM (inactive). The GI50 in the assay with SF-268 is 17.8 µM (inactive).

For `COC(=O)CNC(=O)C(Cc1ccccc1)NC(=O)C(CCSC)NC(=O)C(Cc1ccc(O)cc1)NC(=O)OC(C)(C)C` (stereo not given) (Boc-YMFG-OMe; configuration not given here), the GI50 was > 100 µM (inactive) in the assay with OVCAR-4; 19.1 µM (inactive) in the assay on UACC-257; > 100 µM (inactive) in the assay on TK-10; > 100 µM (inactive) in the assay with NCI-H460; > 100 µM (inactive) in the assay on SK-OV-3; > 100 µM (inactive) in the assay on Malme-3M. Besides, the GI50 was 53 µM (inactive) in the assay on HL-60; 26.4 µM (inactive) in the assay on HOP-92; > 100 µM (inactive) with UO-31; > 100 µM (inactive) in the assay on ACHN; > 100 µM (inactive) in the assay with OVCAR-5; 56.1 µM (inactive) in the assay with NCI-H23. Besides, the GI50 is 79.3 µM (inactive) in the assay with COLO 205; 18.1 µM (inactive) in the assay on SK-MEL-2; 54.3 µM (inactive) with HCT-116; 32.4 µM (inactive) in the assay with T47D; 19.4 µM (inactive) in the assay with NCI-H522; > 100 µM (inactive) with CAKI-1. In addition, the GI50 in the assay on SF-268 is 29.7 µM (inactive).

With `O=C(O)CSCc1cc2c(O)c(c1)Cc1cc(CSCC(=O)O)cc(c1O)Cc1cc(CSCC(=O)O)cc(c1O)Cc1cc(CSCC(=O)O)cc(c1O)C2`, the GI50 in the assay on OVCAR-4, with UACC-257, with TK-10, with NCI-H460, in the assay with SK-OV-3 and with Malme-3M was > 100 µM (inactive) each time. The GI50 with HL-60, with HOP-92, in the assay on UO-31, with ACHN, in the assay with OVCAR-5 and with NCI-H23 was > 100 µM (inactive) throughout. Further, the GI50 in the assay on COLO 205, in the assay on SK-MEL-2, with HCT-116, with T47D, with NCI-H522 and with CAKI-1 was > 100 µM (inactive) in each case. For the same compound, in the assay with SF-268, the GI50 is > 100 µM (inactive).

For `Oc1ccccc1-c1nn2c(CCCCCCCCc3nnc4sc(-c5ccccc5O)nn34)nnc2s1`, the GI50 in the assay with OVCAR-4 is 14.1 µM (inactive); in the assay on UACC-257 it was 20.3 µM (inactive); in the assay with TK-10, 37.2 µM (inactive); in the assay on NCI-H460, 8.05 µM (inactive); in the assay on SK-OV-3, 15.2 µM (inactive); with Malme-3M, 35 µM (inactive). Moreover, the GI50 with HL-60 is 1.03 µM (active); in the assay with HOP-92, 19.1 µM (inactive); in the assay with UO-31, 4.11 µM (inactive); in the assay on ACHN it was 12 µM (inactive); with OVCAR-5 it was 6.27 µM (inactive); in the assay on NCI-H23, 18.8 µM (inactive). For the same compound, the GI50 is 37.2 µM (inactive) in the assay with COLO 205; 15.9 µM (inactive) in the assay on SK-MEL-2; 10.5 µM (inactive) in the assay with HCT-116; 4.9 µM (inactive) in the assay on T47D; 13.9 µM (inactive) in the assay on NCI-H522; 5.11 µM (inactive) in the assay on CAKI-1. In addition, in the assay with SF-268, the GI50 was 19 µM (inactive).

For `Clc1ccc(-c2nc3cc(C45CC6CC(CC(C6)C4)C5)ccc3[nH]2)cc1`, the GI50 in the assay with OVCAR-4 was 60.5 µM (inactive); in the assay on UACC-257, 10.7 µM (inactive); with TK-10, 40.2 µM (inactive); in the assay on NCI-H460, 17.6 µM (inactive); with SK-OV-3, > 100 µM (inactive); in the assay with Malme-3M it was 24.5 µM (inactive). The GI50 with HL-60 is 2.07 µM (inactive); in the assay on HOP-92, 17.7 µM (inactive); in the assay on UO-31 it was 15.3 µM (inactive); with ACHN it was 51.8 µM (inactive); in the assay with OVCAR-5 it was > 100 µM (inactive); with NCI-H23, 52.4 µM (inactive). Moreover, the GI50 in the assay on COLO 205 was 7.43 µM (inactive); with SK-MEL-2, > 100 µM (inactive); in the assay with HCT-116 it was 22.5 µM (inactive); in the assay with T47D, 24.2 µM (inactive); in the assay on NCI-H522, 19.2 µM (inactive); with CAKI-1, > 59.3 µM (inactive). The GI50 in the assay on SF-268 was > 100 µM (inactive).

For the compound `COc1ccc([C@@]23Oc4cc(OC)cc(OC)c4[C@]2(O)[C@H](O)[C@H](C(=O)N(C)C)[C@H]3c2ccccc2)cc1` [ROCAGLAMIDE], the GI50 in the assay with OVCAR-4 was 0.0206 µM (active); with UACC-257 it was 0.0184 µM (active); in the assay on TK-10 it was 0.0146 µM (active); in the assay on NCI-H460, 0.0027 µM (active); with SK-OV-3, 0.00575 µM (active); in the assay with Malme-3M it was 0.00429 µM (active). The GI50 was 0.00383 µM (active) with HL-60; 0.0138 µM (active) in the assay with HOP-92; 0.0158 µM (active) in the assay on UO-31; 0.00344 µM (active) in the assay with ACHN; 0.00991 µM (active) with OVCAR-5; 0.00885 µM (active) with NCI-H23. The GI50 is 0.00647 µM (active) with COLO 205; 0.0197 µM (active) in the assay on SK-MEL-2; 0.00316 µM (active) in the assay with HCT-116; 0.00219 µM (active) in the assay with T47D; 0.0104 µM (active) in the assay with NCI-H522; 0.0292 µM (active) in the assay with CAKI-1. Besides, the GI50 in the assay on SF-268 was 0.00849 µM (active).

On to `Clc1nc(Nc2nc3ccccc3[nH]2)nc(Cl)c1Cc1ccccc1`, for which the GI50 with OVCAR-4 was 36.1 µM (inactive); in the assay on UACC-257, > 100 µM (inactive); in the assay with TK-10 it was > 100 µM (inactive); with NCI-H460, 89.1 µM (inactive); in the assay on SK-OV-3, > 100 µM (inactive); in the assay with Malme-3M, > 100 µM (inactive). The GI50 in the assay on HL-60 is > 100 µM (inactive); in the assay on HOP-92 it was 23 µM (inactive); in the assay on UO-31, > 100 µM (inactive); with ACHN, 85.7 µM (inactive); in the assay on OVCAR-5, > 100 µM (inactive); in the assay on NCI-H23, > 100 µM (inactive). Moreover, the GI50 in the assay on COLO 205 is > 100 µM (inactive); in the assay on SK-MEL-2, > 100 µM (inactive); with HCT-116, > 100 µM (inactive); in the assay with T47D, 89.3 µM (inactive); with NCI-H522, 37 µM (inactive); in the assay on CAKI-1, > 100 µM (inactive). For the same compound, the GI50 in the assay on SF-268 was 49.4 µM (inactive).
